Test results from patent US10646478B2, “Methods for treatment of melanoma” (CHILDREN'S MEDICAL CENTER CORPORATION, priority 2011, dated 2020).

How the values were obtained:
neural crest derivatives = assay: Zebrafish neural crest assay (melanocytes, mitf-GFP, iridophores, mbp-mCherry glia, jaw cartilage); format: in vivo
Source text: The mitf-GFP transgenic was scored at 24 hpf, as this is the point of maximal GFP intensity.

[1] = tested on: sox10, dct, ntl, gata1 expression; assay: In situ hybridization for neural crest and non-neural crest lineage markers; conditions: zebrafish, in vivo
A375 cell line = assay: Microarray analysis of A375 cells treated with leflunomide; format: cell-based, human; conditions: 25 uM, 3 days
Protocol: Expression analysis was performed using Illumina WG6 v3 arrays, and the data was analyzed using Illumina Genome Studio.

[2] = tested on: M481 primary human melanoma xenografts; assay: M481 primary human melanoma xenografts in mice; format: in vivo, mouse; conditions: in combination with Plexicon
[3] = tested on: gene expression (123-gene melanoma signature); assay: Microarray analysis of leflunomide treated zebrafish embryos; format: in vivo
A375 cells = assay: Cell viability of melanoma cell line A375 (FIG. 28b); format: cell-based, human
Source text: (§1) FIG. 28a, M481 cells. FIG. 28b, A375 cells. FIG. 28c, M405 cells. FIG. 28d, M528 cells. FIG. 28e, M715 cells.

[4] = tested on: human melanoma cell lines (A375, Hs.294t, RPMI7951); assay: In vitro melanoma proliferation assay (CellTiterGlo); format: cell-based; conditions: A375, Hs.294t, RPMI7951; CellTiterGlo
Protocol: Human melanoma cell lines (A375, RPMI7951, Hs.294T, MAMLE-3M) were obtained from the American Type Culture Collection. The 8988 cell line was provided by Alec Kimmelman at Dana Farber, and the PANC1 and MDA-231-MB lines were provided by Rania Hartouche at Harvard. Cells were cultured in DMEM/10% FCS at 37 C, 5% CO2. For proliferation assays, 96-well clear bottom plates were used to plate cells at a density of 5,000 cells/well (RPMI7951 and A375) or 10,000 cells/well (MAMLE-3M-3M and Hs.294T) in 100 ul containing indicated concentrations of A771726 or PLX4720 or DMSO. All conditions were tested in triplicate. Media was changed at day 2, and proliferation rate was measured at day 4 using the CellTiterGlo assay kit (Promega). All values are expressed are the % of luciferase relative to the DMSO control well. Differences between groups were statistically analyzed using a generalized linear ANOVA model taking into account factors of PLX4720, A771726 and dose. IC50's were calculated using a log-logistic model.

[5] = arthritis patients; cited from earlier work
[6] = tested on: Human BRAFV600 (M491) cells; assay: Human BRAFV600 (M491) primary melanoma xenografts in mice; format: in vivo, mouse; conditions: in combination with BRAFi and MEKi
M481 cells = assay: Cell viability of primary human melanoma cells M481; format: cell-based; conditions: FIG. 28a
Source text: as §1

[7] = tested on: neural crest stem cells (NCSCs) from fetal (E14.5) rat gut; assay: Rat neural crest stem cell assays (self-renewal, colony size, differentiation); format: cell-based
Protocol: Enteric NCSCs from the fetal (E14.5) rat gut were isolated using flow cytometry to select the 1%-2% of cells expressing the highest levels p75 and α4 integrin as previously described^9. Cells were plated at clonal density in two wells/treatment and cultured in self-renewal medium for 8 days in LEF, A771726 or the vehicle (DMSO) followed by differentiation medium+/−LEF, A771726 or DMSO for 6 days. Cultures were fixed in 4% PFA then stained with antibodies against peripherin, GFAP, and SMA to identify neurons (N), glia (G) and myofibroblasts (M) respectively (U=unstained cells). A total of 3 to 4 independent experiments were performed, and differences measured by ANOVA followed by Bonferonni posthoc comparison. Self-renewal medium contains: DMEM-low glucose, 15% Chick Embryo Extract (CEE), Penn/Strep (P/S), 1% N2 supplement, 2% B27 supplement, 110 nM Retinoic Acid, 50 μM 2-mercaptoethanol 20 ng/ml bFGF, and 20 ng/ml IGF-1. Differentiation medium is the same except it contains 1% CEE, 10 ng/ml bFGF and no IGF-1. Differences between groups were calculated using ANOVA followed by posthoc Sheffe.
Dissociated fetal rat gut cells were plated at clonal density in non-adherent conditions in self-renewal medium with LEF, a77 or DMSO for 10 days^10. Three to five primary neurospheres per treatment were individually re-plated in adherent conditions with LEF, a77 or DMSO and after three days were dissociated into a single cell suspension using trypsin and collagenase IV. Dissociated cells from each neurosphere were re-plated in non-adherent conditions without LEF or a77 and after 10 days, the number of secondary neurospheres were counted and compared. To assess the number of multipotent primary and secondary neurospheres, a subset of neurospheres were plated adherently for 8 days in self-renewal medium followed by 6 days in differentiation medium. Cultures were fixed in 4% PFA and stained with antibodies against peripherin, GFAP, and SMA to identify neurons (N), glia (G) and myofibroblasts (M) respectively. A total of 5 independent experiments were analyzed, and the number of multipotent secondary neurospheres on a given day are normalized to the DMSO control wells, and differences calculated by ANOVA.

## Cc1oncc1C(=O)Nc1ccc(C(F)(F)F)cc1 [leflunomide]
Neural crest derivatives; 2.5 uM from 5-72 hpf
  microphthalmia: microphthalmia was induced
  reflective iridophores on the surface of the eye: reduction of reflective iridophores on the surface of the eye
Neural crest derivatives; 24 hpf
  mitf-GFP+ cells: nearly complete loss of mitf-GFP+ cells
Neural crest derivatives; 36-48 hpf
  pigmented melanocytes: devoid of pigmented melanocytes
Neural crest derivatives; 72 hpf
  jaw cartilage: jaw cartilage disruption
  myelin basic protein (mbp)-mCherry glial cells: reduction of myelin basic protein (mbp)-mCherry glial cells
[1]
  expression of sox10 and dct (ISH): reduced expression of sox10 and dct
  intensity of mesoderm marker ntl and blood marker gata1 (ISH): No significant difference is seen in intensity
A375 cell line
  gene expression in A375 (microarray): downregulation of genes required for neural crest development
[2]
  tumor volume: more effective when used in combination with Plexicon
[3]; 6.5 uM, 50% epiboly to 24 hpf, 2-fold
  number of genes upregulated: 60 genes
[3]; leflunomide treated embryos
  genes upregulated in the 123-gene melanoma signature that are downregulated: 49%
A375 cells
  cell survival of A375 cells: impair cell survival
[4]
  proliferation of human melanoma cell lines: dose-dependent decrease in melanoma proliferation
[5]
  treatment-related adverse event more prevalent than with placebo: elevation of liver transaminase
[6]
  tumor growth: significantly impair tumor growth
M481 cells
  cell survival of M481 cells: impair cell survival
[7]
  colony size reduced compared to controls: 18%
  differentiation or survival of specific progeny: no effect on differentiation or survival of specific progeny
  number of self-renewing NCSCs from primary stem cell colonies: 27+/−5.35 % of controls
